Results on one compound are retold here after patent US9930893B2, “Inhibitors of DXP synthase and methods of use thereof” (The Johns Hopkins University, priority 2014, dated 2018).

Converted amounts (≈) assume the structure as drawn.

Usually MIC stands for the lowest concentration that inhibits growth of the organism. What is called IC50 is the concentration at which inhibition is half-maximal. In general, Ki refers to the equilibrium dissociation constant of an inhibitor or competing ligand from its target.

For one assay, the system named is E. coli K-12 (BW25113). As to the kind of experiment: Antimicrobial activity against E. coli K-12 grown in M9 minimal medium. Conditions: M9 minimal medium; preliminary. It counts as cell-based. An excerpt: The product of DXP synthase, DXP, lies at a metabolic branchpoint. DXP serves as precursor not only for essential isoprenoids, but also is essential to central metabolism as a precursor to both thiamin diphosphate and pyridoxal phosphate. Thus, evaluation of antimicrobial activity of DXP synthase inhibitors in the standard, rich growth medium (CAMHB) which contains rescuing metabolites, likely underestimates the antimicrobial activities of these agents. Standard in vitro culture conditions may have poor predictive value for these agents in vivo; access to most nutrients is thought to be more difficult from the host than in nutrient rich media.

For assay [1], the target named is T1, E. coli DXP synthase (Escherichia coli, UniProt P77488).
T1 construct: made in house
As to the kind of experiment: biochemical. The settings on record: pyruvate 95 μM, D-GAP 56 μM; error 95% Confidence Interval; read-out: IC50 (DXP synthase).

For assay [2], the target named is T2, Porcine pyruvate dehydrogenase (PDH E1 subunit) (Sus scrofa, UniProt P29804).
T2 construct: Ki^PDH; μM); Ki^PDH
T2 sequence (P29804 1-390): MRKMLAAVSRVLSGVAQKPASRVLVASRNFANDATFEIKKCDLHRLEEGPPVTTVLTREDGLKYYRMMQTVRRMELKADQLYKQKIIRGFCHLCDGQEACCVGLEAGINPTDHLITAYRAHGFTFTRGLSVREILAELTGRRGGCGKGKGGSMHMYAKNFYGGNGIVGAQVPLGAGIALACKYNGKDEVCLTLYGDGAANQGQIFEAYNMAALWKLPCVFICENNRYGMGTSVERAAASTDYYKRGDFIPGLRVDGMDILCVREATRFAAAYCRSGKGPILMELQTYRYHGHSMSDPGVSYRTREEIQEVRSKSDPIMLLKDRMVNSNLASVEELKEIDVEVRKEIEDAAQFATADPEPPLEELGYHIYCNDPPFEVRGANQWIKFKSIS
Conditions: Table 5, value marked with reference superscript (previously reported); cited from earlier work.

The target in assay [3] is Porcine pyruvate dehydrogenase (PDH E1 subunit). The settings on record: Table 5, value marked with reference superscript; cited from earlier work.
For assay [4], the target named is T1, E. coli DXP synthase. Conditions: Table 5, value marked with reference superscript (previously reported); read-out: Ki^DXPS; cited from earlier work.
Assay [5] has as its system wild-type K-12 E. coli (ATCC: MG1655). As to the kind of experiment: Antimicrobial activity against E. coli K-12 grown in CAMHB. It counts as cell-based. The procedure: FIG. 7A and FIG. 7B are charts showing representative growth curves are shown for BAP (FIG. 7A) and BnAP (FIG. 7B). Alkylacetylphosphonates exert dose-dependent delay in E. coli K-12 (MG 1655) growth in CAMHB. Fractional growth (measured at 16 h, blue arrow) was determined relative to the no drug control. Standardized cell cultures were exposed to increasing concentrations of acetylphosphonate, and growth was determined by measuring the OD600 for a period of 16 hours. Acetylphosphonate concentration was varied from 0-5 mM: No drug (light blue), 0.08 mM (orange), 0.16 mM (gray), 0.31 mM (yellow), 0.63 mM (blue), 1.25 mM (green), 2.5 mM (dark blue) and 5.0 mM (brown).
Thus, BnAP, PentAP, HexAP and OctAP, also shown to inhibit DXP synthase, were evaluated for antimicrobial activity against wild-type K-12 E. coli (ATCC: MG1655) grown in rich medium (CAMHB).

T1 sequence (P77488 whole entry): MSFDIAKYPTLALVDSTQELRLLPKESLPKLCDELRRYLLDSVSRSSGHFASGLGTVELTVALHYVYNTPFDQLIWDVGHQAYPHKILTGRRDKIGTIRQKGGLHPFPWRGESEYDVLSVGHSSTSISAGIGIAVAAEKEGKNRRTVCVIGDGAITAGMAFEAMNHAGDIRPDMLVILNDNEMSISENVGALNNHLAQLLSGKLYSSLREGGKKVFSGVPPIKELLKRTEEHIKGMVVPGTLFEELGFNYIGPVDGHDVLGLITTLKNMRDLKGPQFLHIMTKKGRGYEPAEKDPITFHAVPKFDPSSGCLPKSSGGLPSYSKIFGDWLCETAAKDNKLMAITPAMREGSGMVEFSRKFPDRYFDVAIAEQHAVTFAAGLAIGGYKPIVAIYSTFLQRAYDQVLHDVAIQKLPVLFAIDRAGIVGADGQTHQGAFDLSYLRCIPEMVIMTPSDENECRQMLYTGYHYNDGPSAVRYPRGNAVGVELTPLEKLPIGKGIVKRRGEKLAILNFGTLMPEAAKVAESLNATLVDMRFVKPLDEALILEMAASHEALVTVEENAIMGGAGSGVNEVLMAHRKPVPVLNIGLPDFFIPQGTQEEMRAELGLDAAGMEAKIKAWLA

In the assay with E. coli K-12 (BW25113), `CCCCOP(=O)(O)C(C)=O` [BAP, butylacetylphosphonate, reference compound] gave an MIC of 3100 µM (≈ 558 µg/mL). Besides, the half-maximal inhibitory concentration (IC50) on E. coli DXP synthase [1] is 24 ± 4 µM. Further, the inhibition constant Ki in assay [2] is 335 ± 8 µM; at E. coli DXP synthase [4] it was 5.6 ± 0.8 µM. The “Ki^PDH/Ki^DXPS” value in assay [3] is on record as 60. The “antimicrobial effects against E. coli (MG1655)” value in assay [5] (FIG. 10, in words) is “dose-dependent inhibition”. The “minimum inhibitory concentration (MIC90)” value in assay [5] (rich medium (CAMHB), 16 h) came out at 2500 µM (≈ 450 µg/mL).
